Reference: PubChem BioAssay AID2060883 (Molecular Pharmacology Branch, DTP, NCI, 2025)

Tested on: 843782-103-R-J1-PDC complex spheroid viability
Assay: Anticancer human tumor 843782-103-R-J1-PDC patient-derived lung adenocarcinoma cell line growth inhibition [RAS]
Conditions: for IC50: curve of first compound; for viability, T/C: stronger effect = lower value; active = viability on the fitted dose curve at most 10% of control; inactive = the rest
Text: RAS pathway inhibitors in Combinations in Complex Spheroids
A high-throughput screen of multi-cell type tumor spheroids was designed to identify active combinations of RAS pathway inhibitors and targeted small molecules. Complex spheroids include a stromal component modeled by human endothelial cells (HUVEC) and fibroblasts modeled by human mesenchymal stem cells (MSCs). The concentration ranges selected for each drug and investigational agent were based upon clinically achievable concentrations if the clinical Cmax of the agent was known.
Compounds. The drugs and investigational agents: abemaciclib (NSC768073), cobimetinib (NSC768068), divarasib (GDC6063, NSC841802), docetaxel (NSC628503), GDC-1971 (RLY-1971, NSC841576), gemcitabine (NSC613327), inavolisib (NSC800729), ipatasertib (NSC767898), KB-0742 (NSC834161), MRTX-1133 (NSC836407), osimertinib (NSC779217), RMC-4630 (NSC839698), RMC-6236 (NSC851965), RMC-6291 (NSC852671), Ro-3306 (NSC812927), sapanisertib (NSC764658), SN-38 (NSC673596), staurosporine (NSC755774), SY5609 (NSC837396), and tovorafenib (DAY101, NSC766906), were obtained from the National Cancer Institute (NCI) Developmental Therapeutics Program Chemical Repository. The FDA-approved anticancer drug set is available from the NCI Developmental Therapeutics Program. […] The stock solutions were prepared in dimethyl sulfoxide (DMSO, Sigma-Aldrich, St. Louis, MO, cat. D2650) at 800-fold the tested concentration and stored at -70 degrees C prior to their use. All drugs and investigational agents were tested over a range starting from a high concentration at or near the clinical Cmax and decreasing in half-log increments. If the clinical Cmax for an agent had not been determined, the highest concentration tested was 10 microM.
Cell Culture. All cells were maintained in an incubator at 37 degrees C and 5% CO2 with 95% humidity. The PDC lines were cultured according to standard operating procedures established by the NCI PDMR. All PDCs were thawed and cultured in Matrigel-coated flasks prepared with a working solution of 1X Ham's F-12 nutrient mix, without supplementation (Invitrogen, Waltham, MA, cat. 11765054), 100 U/mL penicillin-streptomycin (Invitrogen, cat. 15140122), and 2.5% Matrigel (Corning Inc., Corning, NY, cat. 354248) for the first three passages. The 362531-283-R-J2-PDC and 782815-120-R-J1-PDC lines were cultured in 6C/Colon 1B media, which includes advanced DMEM/F-12 (Thermo Fisher Scientific, cat. 12634028), 10 mM HEPES (Thermo Fisher Scientific, cat. 15630080), 1X GlutaMAX supplement (Thermo Fisher Scientific, cat. 35050061), 0.1 mg/mL primocin (InvivoGen, San Diego, CA, cat. ant-pm-2), 10% defined fetal bovine serum, heat inactivated (HyClone Laboratories Inc., Logan, UT, cat. SH30070.03HI), 50% L-WRN conditioned media (ATCC, cat. CRL-3276), 1.25 mM N-Acetyl-L-cysteine (Sigma-Aldrich, cat. A9165), 10 mM nicotinamide (Sigma-Aldrich, cat. N0636), 1X B-27 supplement (Thermo Fisher Scientific, cat. 17504044), 1X N-2 supplement (Thermo Fisher Scientific, cat. 17502048), 50 ng/mL human EGF (Thermo Fisher Scientific, cat. PHG0311), and 10 microM Y-27632 dihydrochloride (Tocris Bioscience, cat. 1254). The K12877-001-R-J1-PDC line was cultured in 6I media, which includes all 6C/Colon 1B media plus 10 ng/mL human FGF-10 (PeproTech, cat. 100-26), 1 ng/mL human FGF-2 (PeproTech, cat. 100-18B), 1 µM prostaglandin E2 (Tocris Bioscience, cat. 2296), […] hydrocortisone (Sigma-Aldrich, cat. H4001), and […] bovine insulin (Sigma-Aldrich, cat. I6634). The K86415-001-R-J1-PDC line was cultured in 6D media, which includes all 6C/Colon 1B media components minus the L-WRN conditioned media. The 485176-168-R4-J1-PDC was cultured in PANC media, which includes all 6C/Colon 1B media plus 100 ng/mL human FGF-10 (PeproTech, cat. 100-26), 500 nM SB-431542 (Selleckchem, cat. S1067), and 10 nM gastrin (Tocris Bioscience, cat. 3006). […]
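Also: viability read after seven days of compound exposure.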

C=CC(=O)N1CCN(c2nc(OCC3CCCN3C)nc3c(F)c(-c4nc(N)cc(C)c4C(F)(F)F)c(Cl)cc23)C(C)C1 (centres undefined) + CCn1c(-c2cc(N3CCN(C)CC3)cnc2C(C)OC)c2c3cc(ccc31)-c1csc(n1)CC(NC(=O)C1CC1C)C(=O)N1CCCC(N1)C(=O)OCC(C)(C)C2
> 1000 nM: IC50 (second compound 0.000949 µM) | IC50 (second compound 0.003 µM)
< 3.16 nM: IC50 (second compound 0.00949 µM) | IC50 (second compound 0.03 µM) | IC50 (second compound 0.0949 µM) | IC50 (second compound 0.3 µM)
inactive: viability, T/C (second compound 0.000949 µM, first compound 0.00316 µM) 64.2% | viability, T/C (second compound 0.000949 µM, first compound 0.01 µM) 64.9% | viability, T/C (second compound 0.000949 µM, first compound 0.0316 µM) 62.9% | viability, T/C (second compound 0.000949 µM, first compound 0.1 µM) 66.8% | viability, T/C (second compound 0.000949 µM, first compound 0.316 µM) 71.8% | viability, T/C (second compound 0.000949 µM, first compound 1 µM) 67.1% | viability, T/C (second compound 0.003 µM, first compound 0.00316 µM) 57.2% | viability, T/C (second compound 0.003 µM, first compound 0.01 µM) 56.5% | viability, T/C (second compound 0.003 µM, first compound 0.0316 µM) 55% | viability, T/C (second compound 0.003 µM, first compound 0.1 µM) 55.4% | viability, T/C (second compound 0.003 µM, first compound 0.316 µM) 55.2% | viability, T/C (second compound 0.003 µM, first compound 1 µM) 60.8% | viability, T/C (second compound 0.00949 µM, first compound 0.00316 µM) 33.6% | viability, T/C (second compound 0.00949 µM, first compound 0.01 µM) 38.1% | viability, T/C (second compound 0.00949 µM, first compound 0.0316 µM) 36.3% | viability, T/C (second compound 0.00949 µM, first compound 0.1 µM) 37.1% | viability, T/C (second compound 0.00949 µM, first compound 0.316 µM) 37% | viability, T/C (second compound 0.00949 µM, first compound 1 µM) 35.8% | viability, T/C (second compound 0.03 µM, first compound 0.00316 µM) 20.3% | viability, T/C (second compound 0.03 µM, first compound 0.01 µM) 23.1% | viability, T/C (second compound 0.03 µM, first compound 0.0316 µM) 19.3% | viability, T/C (second compound 0.03 µM, first compound 0.1 µM) 23.8% | viability, T/C (second compound 0.03 µM, first compound 0.316 µM) 22.7% | viability, T/C (second compound 0.03 µM, first compound 1 µM) 21.6% | viability, T/C (second compound 0.0949 µM, first compound 0.00316 µM) 15.4% | viability, T/C (second compound 0.0949 µM, first compound 0.01 µM) 13.7% | viability, T/C (second compound 0.0949 µM, first compound 0.0316 µM) 16.6% | viability, T/C (second compound 0.0949 µM, first compound 0.1 µM) 20% | viability, T/C (second compound 0.0949 µM, first compound 0.316 µM) 17.4% | viability, T/C (second compound 0.0949 µM, first compound 1 µM) 16.4% | viability, T/C (second compound 0.3 µM, first compound 0.00316 µM) 14.6% | viability, T/C (second compound 0.3 µM, first compound 0.01 µM) 14.5% | viability, T/C (second compound 0.3 µM, first compound 0.0316 µM) 14.8% | viability, T/C (second compound 0.3 µM, first compound 0.1 µM) 14.9% | viability, T/C (second compound 0.3 µM, first compound 0.316 µM) 14.5% | viability, T/C (second compound 0.3 µM, first compound 1 µM) 13.4%

C=CC(=O)Nc1cc(Nc2nccc(-c3cn(C)c4ccccc34)n2)c(OC)cc1N(C)CCN(C)C + C#Cc1c(F)ccc2cc(O)cc(-c3ncc4c(N5CC6CCC(C5)N6)nc(OCC56CCCN5CC(F)C6)nc4c3F)c12
inactive: viability, T/C (second compound 0.0316 µM, first compound 0.00316 µM) 108% | viability, T/C (second compound 0.0316 µM, first compound 0.01 µM) 98.2% | viability, T/C (second compound 0.0316 µM, first compound 0.0316 µM) 101% | viability, T/C (second compound 0.0316 µM, first compound 0.1 µM) 96.9% | viability, T/C (second compound 0.0316 µM, first compound 0.316 µM) 94.6% | viability, T/C (second compound 0.0316 µM, first compound 1 µM) 55.4% | viability, T/C (second compound 0.1 µM, first compound 0.00316 µM) 104% | viability, T/C (second compound 0.1 µM, first compound 0.01 µM) 94.7% | viability, T/C (second compound 0.1 µM, first compound 0.0316 µM) 102% | viability, T/C (second compound 0.1 µM, first compound 0.1 µM) 97% | viability, T/C (second compound 0.1 µM, first compound 0.316 µM) 88.2% | viability, T/C (second compound 0.1 µM, first compound 1 µM) 64.2% | viability, T/C (second compound 0.316 µM, first compound 0.00316 µM) 105% | viability, T/C (second compound 0.316 µM, first compound 0.01 µM) 99.4% | viability, T/C (second compound 0.316 µM, first compound 0.0316 µM) 101% | viability, T/C (second compound 0.316 µM, first compound 0.1 µM) 93.9% | viability, T/C (second compound 0.316 µM, first compound 0.316 µM) 80% | viability, T/C (second compound 0.316 µM, first compound 1 µM) 54.4% | viability, T/C (second compound 1 µM, first compound 0.00316 µM) 97% | viability, T/C (second compound 1 µM, first compound 0.01 µM) 90.7% | viability, T/C (second compound 1 µM, first compound 0.0316 µM) 99.9% | viability, T/C (second compound 1 µM, first compound 0.1 µM) 88.9% | viability, T/C (second compound 1 µM, first compound 0.316 µM) 65.3% | viability, T/C (second compound 1 µM, first compound 1 µM) 37.6% | viability, T/C (second compound 3.16 µM, first compound 0.00316 µM) 90.3% | viability, T/C (second compound 3.16 µM, first compound 0.01 µM) 81.6% | viability, T/C (second compound 3.16 µM, first compound 0.0316 µM) 88% | viability, T/C (second compound 3.16 µM, first compound 0.1 µM) 63.6% | viability, T/C (second compound 3.16 µM, first compound 0.316 µM) 46% | viability, T/C (second compound 3.16 µM, first compound 1 µM) 33.3% | viability, T/C (second compound 10 µM, first compound 0.00316 µM) 55.9% | viability, T/C (second compound 10 µM, first compound 0.01 µM) 54% | viability, T/C (second compound 10 µM, first compound 0.0316 µM) 56.5% | viability, T/C (second compound 10 µM, first compound 0.1 µM) 44.7% | viability, T/C (second compound 10 µM, first compound 0.316 µM) 33.1%
> 1000 nM: IC50 (second compound 0.0316 µM) | IC50 (second compound 0.1 µM) | IC50 (second compound 0.316 µM)
231 nM: IC50 (second compound 3.16 µM)
active: viability, T/C (second compound 10 µM, first compound 1 µM) 4.02%
595 nM: IC50 (second compound 1 µM)
57.6 nM: IC50 (second compound 10 µM)
